Measured values taken from the NIST ThermoML archive (doi:10.1016/j.fluid.2007.01.001).

Assay: xn = mol fraction of the nth substance listed
Conditions: 101 kPa, Liquid; for viscosity: Capillary tube (Ostwald / Ubbelohde) method; for speed of sound: Frequency=2 MHz, Linear variable-path acoustic interferometer; for mass density: Pycnometric method

CCCCCC(C)O (stereo not given) [2-heptanol] + Cc1ccccc1
Conditions	mass density, 298.15 K [kg/m3]	mass density, 308.15 K [kg/m3]	speed of sound, 298.15 K [m/s]	speed of sound, 308.15 K [m/s]	viscosity, 298.15 K [mPa·s]	viscosity, 308.15 K [mPa·s]
x2 = 0	813.74	804.88	1314	1274	5.088	3.683
x2 = 0.0514	815.49	806.49	1309	1267	4.335	3.171
x2 = 0.1014	817.27	808.2	1303	1261	3.878	2.776
x2 = 0.1469	818.88	809.75	1298	1256	3.392	2.459
x2 = 0.2008	820.83	811.62	1293	1251	2.918	2.155
x2 = 0.2519	822.7	813.37	1288	1246	2.526	1.875
x2 = 0.3007	824.54	815.12	1283	1243	2.195	1.665
x2 = 0.348	826.33	816.85	1279	1238	1.9	1.485
x2 = 0.4006	828.45	818.86	1276	1235	1.622	1.332
x2 = 0.4526	830.61	820.97	1272	1232	1.396	1.199
x2 = 0.5002	832.62	822.92	1271	1230	1.24	1.078
x2 = 0.5501	834.9	825.13	1269	1229	1.064	0.992
x2 = 0.6011	837.36	827.5	1268	1228	0.931	0.904
x2 = 0.6574	840.16	830.22	1268	1229	0.853	0.818
x2 = 0.7011	842.5	832.53	1269	1230	0.778	0.756
x2 = 0.756	845.59	835.62	1273	1234	0.741	0.679
x2 = 0.8	848.22	838.25	1276	1238	0.691	0.641
x2 = 0.854	851.69	841.71	1283	1243	0.65	0.57
x2 = 0.9009	854.88	844.95	1289	1250	0.611	0.518
x2 = 0.9475	858.12	848.5	1296	1258	0.589	0.501

CCCCC(C)O (stereo not given) [2-hexanol] + Cc1ccccc1
Conditions	mass density, 298.15 K [kg/m3]	mass density, 308.15 K [kg/m3]	speed of sound, 298.15 K [m/s]	speed of sound, 308.15 K [m/s]	viscosity, 298.15 K [mPa·s]	viscosity, 308.15 K [mPa·s]
x2 = 0	810.84	801.75	1290	1255	4.105	2.92
x2 = 0.0497	812.91	803.69	1286	1251	3.548	2.566
x2 = 0.1007	815.08	805.85	1284	1245	3.087	2.273
x2 = 0.1588	817.53	808.16	1281	1243	2.741	1.935
x2 = 0.1993	819.29	809.89	1278	1240	2.427	1.703
x2 = 0.252	821.5	812.03	1274	1237	2.11	1.519
x2 = 0.2999	823.59	813.99	1270	1235	1.849	1.303
x2 = 0.3495	825.77	816.07	1269	1232	1.619	1.153
x2 = 0.4016	828.16	818.34	1267	1230	1.439	1.046
x2 = 0.4468	830.21	820.35	1265	1229	1.318	0.962
x2 = 0.5012	832.7	822.9	1265	1228	1.165	0.85
x2 = 0.5502	835.1	825.27	1264	1228	1.061	0.794
x2 = 0.6003	837.61	827.79	1263	1228	0.953	0.766
x2 = 0.6492	840.23	830.36	1267	1229	0.92	0.689
x2 = 0.7008	843.05	833.28	1268	1230	0.866	0.671
x2 = 0.7476	845.75	835.92	1271	1232	0.84	0.611
x2 = 0.8006	848.93	839.1	1276	1237	0.762	0.579
x2 = 0.8502	852.09	842.25	1280	1242	0.686	0.561
x2 = 0.8945	855.01	845.2	1286	1249	0.649	0.531
x2 = 0.9407	858.09	848.38	1294	1257	0.638	0.527

CCCCCCC(C)O (stereo not given) [2-octanol] + Cc1ccccc1
Conditions	mass density, 298.15 K [kg/m3]	mass density, 308.15 K [kg/m3]	speed of sound, 298.15 K [m/s]	speed of sound, 308.15 K [m/s]	viscosity, 298.15 K [mPa·s]	viscosity, 308.15 K [mPa·s]
x2 = 0	817.08	809.89	1328	1292	6.429	4.365
x2 = 0.0494	818.49	811.13	1323	1285	5.547	3.837
x2 = 0.0991	819.89	812.4	1317	1280	4.813	3.373
x2 = 0.1497	821.39	813.76	1313	1274	4.186	2.975
x2 = 0.1999	822.91	815.11	1306	1268	3.559	2.563
x2 = 0.2511	824.47	816.48	1299	1261	3.069	2.264
x2 = 0.2996	826.03	817.85	1294	1257	2.652	1.986
x2 = 0.354	827.83	819.46	1289	1250	2.239	1.685
x2 = 0.3998	829.43	820.91	1285	1247	1.966	1.488
x2 = 0.4469	831.12	822.49	1279	1243	1.69	1.276
x2 = 0.5	833.15	824.35	1277	1239	1.462	1.121
x2 = 0.5509	835.22	826.29	1273	1235	1.263	1.004
x2 = 0.5995	837.33	828.32	1271	1234	1.104	0.912
x2 = 0.6486	839.67	830.43	1270	1232	0.947	0.836
x2 = 0.701	842.33	832.94	1270	1233	0.88	0.77
x2 = 0.7477	844.88	835.37	1271	1234	0.791	0.707
x2 = 0.7989	847.89	838.32	1273	1237	0.716	0.649
x2 = 0.8513	851.18	841.6	1278	1241	0.628	0.569
x2 = 0.9	854.46	844.93	1286	1247	0.636	0.573
x2 = 0.9511	858.12	848.66	1294	1255	0.574	0.506
